Columns and labels:
[1] = system: TGFβ1; settings: DP isolated from human HFs cultured ex vivo for 48 h; DHT-treated (1 μM) vs. untreated HFOCs
Description: (§1) For RNA isolation and Quantitative Real-Time PCR (qPCR), Qiagen RNeasy kit (Qiagen, Germany) is used to isolate RNA. Concentration and purity are ascertained in a NanoDrop spectrophotometer. 600 ng of RNA are reverse transcribed into complementary DNA with iScript™ cDNA Synthesis Kit. Quantitative real-time polymerase chain reactions (qPCRs) are performed in a CFX384 Touch™ Real-Time PCR Detection System (Bio-Rad Laboratories). 10 μl reaction mixes are prepared consisting of iTaq™ Universal SYBR® Green Supermix (Bio-Rad Laboratories), forward and reverse primers (at 125 nM each) and cDNA (30 ng). The amplification program used is: 95° C. for 3 min, followed by 39 cycles of 95° C. for 10 s, 60° C. for 35 s, and melt curve from 55° C. to 95° C. with 0.5° C. increment for 10 s. All primers are designed to span at least one […]. Transcript levels are quantified by the 2-ΔΔCt method. ΔCt values are determined by subtracting the geometrical mean of the Ct values for GAPDH and UBQ from the mean target gene Ct value.
(§2) Hair grafts are obtained from male patients aged between 18-55 years with informed consent. A total of 10-20 micrografts are harvested from the occipital scalp of patients diagnosed with androgenic alopecia and undergoing autologous hair transplantation by the routine FUE technique.

[2] = system: TGFβ3; settings: DP isolated from human HFs cultured ex vivo for 48 h; DHT-treated (1 μM) vs. untreated HFOCs
Description: as §1, §2

[3] = system: TGFβ2; assay: qRT-PCR of TGFβ transcripts in dermal papilla isolated from HFOCs; format: cell-based, human; settings: DP isolated from human HFs cultured ex vivo for 48 h; DHT-treated (1 μM) vs. untreated HFOCs
Excerpt: Concentration and purity are ascertained in a NanoDrop spectrophotometer.
(§3) In addition, only anagen hair follicles are used.
(§4) Hair growth percentages is normalized to day 0.

[4] = system: phosphorylated SMAD2 (p-SMAD2); assay: Western blot of phospho-SMAD2 in hair bulbs of HFOCs; format: cell-based, human; settings: untreated vs DHT-treated HFOCs, 72 h
Description: For western blot, hair bulbs are dissected from HFOCs treated with DMSO, DHT and Galunisertib for 72 h. Upon rinse in PBS, hair bulbs are lysed in Laemmli buffer (without bromophenol blue) with Halt Protease Inhibitor Cocktail and Halt Phosphatase Inhibitor Cocktail, and lysates are sonicated. Lysates from 10 hair bulbs are used for each condition tested. Total extracts are then loaded in SDS-polyacrylamide gels and transferred onto nitrocellulose membranes for western blot analysis. Membranes are blocked during 1 h with TBS+5% BSA. Primary and secondary antibodies are diluted in TBS+2% BSA accordingly to Supplementary Table 1. Signal is detected using Clarity Western ECL Substrate reagent. A GS-800 calibrated densitometer with Quantity One 1-D Analysis Software 4.6 (Bio-Rad Laboratories) is used for quantitative analysis of protein levels.
as §3, §4

## C[C@]12CCC(=O)C[C@@H]1CC[C@@H]1[C@@H]2CC[C@]2(C)[C@@H](O)CC[C@@H]12 [DHT, dihydrotestosterone]
[1]
  TGFβ1 transcript levels in DP: remaining unchanged
[2]
  TGFβ3 transcript levels in DP: remaining unchanged
[3]
  TGFβ2 transcript levels in DP: slightly increased
[4]
  p-SMAD2 protein levels in hair bulbs: equivalent

From patent US20260256771A1, “GALUNISERTIB FOR USE IN THE TREATMENT OF ANDROGENIC ALOPECIA” (SAÚDE VIÁVEL, S.A., priority 2022, published 2026)
